Laboratory results from patent US12594276B2, “Inhibitors of human immunodeficiency virus replication” (ViiV Healthcare UK (No.5) Limited, priority 2024, dated 2026).
pEC50: −log10 of the molar value.

What was measured:
[1] = Compound cytotoxicity, XTT-based colorimetric assay; format: cell-based; settings: human; uninfected MT2 cells, day 4, XTT; read-out: CC50
Summary of the method: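 Uninfected MT2 cells, antiviral-assay protocol without virus; XTT colorimetric readout day 4; CC50 reported.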

[2] = system: recombinant NL4-3 virus (nef section replaced with Renilla luciferase gene) in MT-2 cells; assay: HIV cell culture assay (antiviral activity, luciferase readout); format: cell-based; settings: Renilla, NL43, MT-2 cells infected for 4-5 days with recombinant NL4-3 Renilla luciferase virus
Summary of the method: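 EC50 was derived by median-effect fitting of Renilla luciferase signal from MT-2 cells. These cells were infected for 4–5 days with NL4-3 reporter virus (nef partly replaced by luciferase; made in 293T cells) in the presence of serially diluted compound. Activity was quantified with a live-cell luciferase substrate.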

SMILES: CS(=O)(=O)Nc1nn(CCN2C[C@@H](F)[C@@H](F)C2)c2c(-n3c([C@H](Cc4cc(F)cc(F)c4)NC(=O)Cn4nc(C(F)F)c5c4C(F)(F)[C@@H]4C[C@H]54)nc4nc(C5CCC(F)(F)CC5)cc(C(F)F)c4c3=O)ccc(Cl)c12 (atropisomer, axis not shown; (P)) [Example 259, N-[(1S)-1-[(3P)-3-(4-chloro-1-{2-[(3R,4S)-3,4-difluoropyrrolidin-1-yl]ethyl}-3-methanesulfonamido-1H-indazol-7-yl)-7-(4,4-difluorocyclohexyl)-5-(difluoromethyl)-4-oxo-3H,4H-pyrido[2,3-d]pyrimidin-2-yl]-2-(3,5-difluorophenyl)ethyl]-2-[(2S,4R)-9-(difluoromethyl)-5,5-difluoro-7,8-diazatricyclo[4.3.0.0^2,^4]nona-1(6),8-dien-7-yl]acetamide]
- CC50 at 4 days [1]: > 50 nM
- pEC50 [2]: 10.60

SMILES: CS(=O)(=O)Nc1nn(CCN2CCC(F)CC2)c2c(-n3c([C@H](Cc4cc(F)cc(F)c4)NC(=O)Cn4nc(C5CC5)c5c4C[C@@H]4C[C@H]54)nc4nc(C5CCC(F)(F)CC5)cc(C(F)F)c4c3=O)ccc(Cl)c12 (atropisomer, axis not shown; (P)) [Example 371, N-[(1S)-1-[(3P)-3-{4-chloro-1-[2-(4-fluoropiperidin-1-yl)ethyl]-3-methanesulfonamido-1H-indazol-7-yl}-7-(4,4-difluorocyclohexyl)-5-(difluoromethyl)-4-oxo-3H,4H-pyrido[2,3-d]pyrimidin-2-yl]-2-(3,5-difluorophenyl)ethyl]-2-[(2S,4S)-9-cyclopropyl-7,8-diazatricyclo[4.3.0.0^2,^4]nona-1(6),8-dien-7-yl]acetamide]
- CC50 at 4 days [1]: > 20 nM
- pEC50 [2]: 11.05

SMILES: COCCCn1nc(NS(C)(=O)=O)c2c(Cl)ccc(-n3c([C@H](Cc4cc(F)cc(F)c4)NC(=O)Cn4nc(C(F)F)c5c4C(F)(F)[C@@H]4C[C@H]54)nc4nc(C5CCC(F)(F)CC5)cc(NCCC5CCOCC5)c4c3=O)c21 (atropisomer, axis not shown; (P)) [Example 550, N-[(1S)-1-[(3P)-3-[4-chloro-3-methanesulfonamido-1-(3-methoxypropyl)-1H-indazol-7-yl]-7-(4,4-difluorocyclohexyl)-5-{[2-(oxan-4-yl)ethyl]amino}-4-oxo-3H,4H-pyrido[2,3-d]pyrimidin-2-yl]-2-(3,5-difluorophenyl)ethyl]-2-[(2S,4R)-9-(difluoromethyl)-5,5-difluoro-7,8-diazatricyclo[4.3.0.0^2,^4]nona-1(6),8-dien-7-yl]acetamide]
- CC50 at 4 days [1]: > 20 nM
- pEC50 [2]: 10.92

SMILES: Cc1cc(C2CCC(F)(F)CC2)nc2nc([C@H](Cc3cc(F)cc(F)c3)NC(=O)Cn3nc(C(F)F)c4c3C(F)(F)[C@@H]3C[C@H]43)n(-c3ccc(Cl)c4c(NS(C)(=O)=O)nn(CCN5CCC(C)(F)CC5)c34)c(=O)c12 (atropisomer, axis not shown; (P)) [Example 271, N-[(1S)-1-[(3P)-3-{4-chloro-1-[2-(4-fluoro-4-methylpiperidin-1-yl)ethyl]-3-methanesulfonamido-1H-indazol-7-yl}-7-(4,4-difluorocyclohexyl)-5-methyl-4-oxo-3H,4H-pyrido[2,3-d]pyrimidin-2-yl]-2-(3,5-difluorophenyl)ethyl]-2-[(2S,4R)-9-(difluoromethyl)-5,5-difluoro-7,8-diazatricyclo[4.3.0.0^2,^4]nona-1(6),8-dien-7-yl]acetamide]
- CC50 at 4 days [1]: > 50 nM
- pEC50 [2]: 10.82

SMILES: CS(=O)(=O)Nc1nn(CCN2C[C@H](F)C[C@H](F)C2)c2c(-n3c([C@H](Cc4cc(F)cc(F)c4)NC(=O)Cn4nc(C(F)F)c5c4C(F)(F)[C@@H]4C[C@H]54)nc4nc(C5CCC(F)(F)CC5)cc(NCCN5CCOCC5)c4c3=O)ccc(Cl)c12 (atropisomer, axis not shown; (P)) [Example 491, N-[(1S)-1-[(3P)-3-(4-chloro-1-{2-[(3R,5S)-3,5-difluoropiperidin-1-yl]ethyl}-3-methanesulfonamido-1H-indazol-7-yl)-7-(4,4-difluorocyclohexyl)-5-{[2-(morpholin-4-yl)ethyl]amino}-4-oxo-3H,4H-pyrido[2,3-d]pyrimidin-2-yl]-2-(3,5-difluorophenyl)ethyl]-2-[(2S,4R)-9-(difluoromethyl)-5,5-difluoro-7,8-diazatricyclo[4.3.0.0^2,^4]nona-1(6),8-dien-7-yl]acetamide]
- CC50 at 4 days [1]: > 20 nM
- pEC50 [2]: 11.05

SMILES: Cc1cc(C2(F)CCC(F)(F)CC2)nc2nc([C@H](Cc3cc(F)cc(F)c3)NC(=O)Cn3nc(C4CC4)c4c3C[C@@H]3C[C@H]43)n(-c3ccc(Cl)c4c(NS(C)(=O)=O)nn(CCN5C[C@@H](C)OC(C)(C)C5)c34)c(=O)c12 (atropisomer, axis not shown; (P)) [Example 584, N-[(1S)-1-[(3P)-3-(4-chloro-3-methanesulfonamido-1-{2-[(6R)-2,2,6-trimethylmorpholin-4-yl]ethyl}-1H-indazol-7-yl)-5-methyl-4-oxo-7-(1,4,4-trifluorocyclohexyl)-3H,4H-pyrido[2,3-d]pyrimidin-2-yl]-2-(3,5-difluorophenyl)ethyl]-2-[(2S,4S)-9-cyclopropyl-7,8-diazatricyclo[4.3.0.0^2,^4]nona-1(6),8-dien-7-yl]acetamide]
- CC50 at 4 days [1]: > 20 nM
- pEC50 [2]: 10.82

SMILES: Cc1cc(C2(CF)CCC(F)(F)CC2)nc2nc([C@H](Cc3cc(F)cc(F)c3)NC(=O)Cn3nc(C4CC4)c4c3C[C@@H]3C[C@H]43)n(-c3ccc(Cl)c4c(NS(C)(=O)=O)nn(CCN5C[C@@H](C)O[C@@H](C)C5)c34)c(=O)c12 (atropisomer, axis not shown; (P)) [Example 557, N-[(1S)-1-[(3P)-3-(4-chloro-1-{2-[(2R,6S)-2,6-dimethylmorpholin-4-yl]ethyl}-3-methanesulfonamido-1H-indazol-7-yl)-7-[4,4-difluoro-1-(fluoromethyl)cyclohexyl]-5-methyl-4-oxo-3H,4H-pyrido[2,3-d]pyrimidin-2-yl]-2-(3,5-difluorophenyl)ethyl]-2-[(2S,4S)-9-cyclopropyl-7,8-diazatricyclo[4.3.0.0^2,^4]nona-1(6),8-dien-7-yl]acetamide]
- CC50 at 4 days [1]: > 20 nM
- pEC50 [2]: 11.15

SMILES: CS(=O)(=O)Nc1nn(CCN2CC(F)(F)C2)c2c(-n3c([C@H](Cc4cc(F)cc(F)c4)NC(=O)Cn4nc(C(F)F)c5c4C(F)(F)[C@@H]4C[C@H]54)nc4nc(C5CCC(F)(F)CC5)cc(C(F)F)c4c3=O)ccc(Cl)c12 (atropisomer, axis not shown; (P)) [Example 307, N-[(1S)-1-[(3P)-3-{4-chloro-1-[2-(3,3-difluoroazetidin-1-yl)ethyl]-3-methanesulfonamido-1H-indazol-7-yl}-7-(4,4-difluorocyclohexyl)-5-(difluoromethyl)-4-oxo-3H,4H-pyrido[2,3-d]pyrimidin-2-yl]-2-(3,5-difluorophenyl)ethyl]-2-[(2S,4R)-9-(difluoromethyl)-5,5-difluoro-7,8-diazatricyclo[4.3.0.0^2,^4]nona-1(6),8-dien-7-yl]acetamide]
- CC50 at 4 days [1]: > 50 nM
- pEC50 [2]: 10.64

SMILES: Cc1cc(C2(F)CCC(F)(F)CC2)nc2nc([C@H](Cc3cc(F)cc(F)c3)NC(=O)Cn3nc(C(F)(F)F)c4c3C(F)(F)[C@@H]3C[C@H]43)n(-c3ccc(Cl)c4c(NS(C)(=O)=O)nn(CCN5C[C@H](F)C[C@H](F)C5)c34)c(=O)c12 (atropisomer, axis not shown; (P)) [Example 569, N-[(1S)-1-[(3P)-3-(4-chloro-1-{2-[(3R,5S)-3,5-difluoropiperidin-1-yl]ethyl}-3-methanesulfonamido-1H-indazol-7-yl)-5-methyl-4-oxo-7-(1,4,4-trifluorocyclohexyl)-3H,4H-pyrido[2,3-d]pyrimidin-2-yl]-2-(3,5-difluorophenyl)ethyl]-2-[(2S,4R)-5,5-difluoro-9-(trifluoromethyl)-7,8-diazatricyclo[4.3.0.0^2,^4]nona-1(6),8-dien-7-yl]acetamide]
- CC50 at 4 days [1]: > 20 nM
- pEC50 [2]: 10.92

SMILES: Cc1cc(C2CCC(F)(F)CC2)nc2nc([C@H](Cc3cc(F)cc(F)c3)NC(=O)Cn3nc(C(F)F)c4c3C(F)(F)[C@@H]3C[C@H]43)n(-c3ccc(Cl)c4c(NS(C)(=O)=O)nn(CCN5CC(F)(F)C5)c34)c(=O)c12 (atropisomer, axis not shown; (P)) [Example 229, N-[(1S)-1-[(3P)-3-{4-chloro-1-[2-(3,3-difluoroazetidin-1-yl)ethyl]-3-methanesulfonamido-1H-indazol-7-yl}-7-(4,4-difluorocyclohexyl)-5-methyl-4-oxo-3H,4H-pyrido[2,3-d]pyrimidin-2-yl]-2-(3,5-difluorophenyl)ethyl]-2-[(2S,4R)-9-(difluoromethyl)-5,5-difluoro-7,8-diazatricyclo[4.3.0.0^2,4]nona-1(6),8-dien-7-yl]acetamide]
- CC50 at 4 days [1]: > 50 nM
- pEC50 [2]: 10.89

SMILES: Cc1cc(C2(F)CCC(F)(F)CC2)nc2nc([C@H](Cc3cc(F)cc(F)c3)NC(=O)Cn3nc(C4CC4)c4c3C[C@@H]3C[C@H]43)n(-c3ccc(Cl)c4c(NS(C)(=O)=O)nn([C@@H](C)CN5C[C@H](F)C[C@H](F)C5)c34)c(=O)c12 (relative stereo) [Example 754, N-[(1S)-1-[(3P)-3-{4-chloro-1-[(2S)-1-[(3R,5S)-3,5-difluoropiperidin-1-yl]propan-2-yl]-3-methanesulfonamido-1H-indazol-7-yl}-5-methyl-4-oxo-7-(1,4,4-trifluorocyclohexyl)-3H,4H-pyrido[2,3-d]pyrimidin-2-yl]-2-(3,5-difluorophenyl)ethyl]-2-[(2R*,4R*)-9-cyclopropyl-7,8-diazatricyclo[4.3.0.0^2,^4]nona-1(6),8-dien-7-yl]acetamide]
- CC50 at 4 days [1]: > 20 nM
- pEC50 [2]: 10.12
